Assay results taken from PubChem BioAssay (NCI).
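Test compounds were applied to cells in 96-well plates for 48 hours at 5 doses. GI50 marks 50% less growth. TGI marks complete inhibition of growth.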

Tests used:
Experiment in all cases: inhibition of tumour cell growth, NCI panel, 48 h
786-0 renal = tested on: 786-0 renal
A498 renal = tested on: A498 renal
A549 NSCLC = tested on: A549 NSCLC
ACHN renal = tested on: ACHN renal
BT-549 breast = tested on: BT-549 breast
CAKI-1 renal = tested on: CAKI-1 renal
CCRF-CEM leukemia = tested on: CCRF-CEM leukemia
COLO 205 colon = tested on: COLO 205 colon
DU-145 prostate = tested on: DU-145 prostate
EKVX NSCLC = tested on: EKVX NSCLC
HCC-2998 colon = tested on: HCC-2998 colon
HCT-116 colon = tested on: HCT-116 colon
HCT-15 colon = tested on: HCT-15 colon
HL-60(TB) leukemia = tested on: HL-60(TB) leukemia
HOP-62 NSCLC = tested on: HOP-62 NSCLC
HOP-92 NSCLC = tested on: HOP-92 NSCLC
HS 578T breast = tested on: HS 578T breast
HT29 colon = tested on: HT29 colon
IGROV1 ovarian = tested on: IGROV1 ovarian
K-562 leukemia = tested on: K-562 leukemia
KM12 colon = tested on: KM12 colon
LOX IMVI melanoma = tested on: LOX IMVI melanoma
M14 melanoma = tested on: M14 melanoma
MALME-3M melanoma = tested on: MALME-3M melanoma
MCF7 breast = tested on: MCF7 breast
MDA-MB-231 breast = tested on: MDA-MB-231 breast
MDA-MB-435 = tested on: MDA-MB-435
MOLT-4 leukemia = tested on: MOLT-4 leukemia
NCI-H226 lung = tested on: NCI-H226 lung
NCI-H23 lung = tested on: NCI-H23 lung
NCI-H460 lung = tested on: NCI-H460 lung
NCI-H522 lung = tested on: NCI-H522 lung
NCI/ADR-RES ovarian = tested on: NCI/ADR-RES ovarian
OVCAR-3 ovarian = tested on: OVCAR-3 ovarian
OVCAR-4 ovarian = tested on: OVCAR-4 ovarian
OVCAR-5 ovarian = tested on: OVCAR-5 ovarian
OVCAR-8 ovarian = tested on: OVCAR-8 ovarian
PC-3 prostate = tested on: PC-3 prostate
RPMI-8226 leukemia = tested on: RPMI-8226 leukemia
RXF 393 renal = tested on: RXF 393 renal
SF-268 CNS = tested on: SF-268 CNS
SF-295 CNS = tested on: SF-295 CNS
SF-539 CNS = tested on: SF-539 CNS
SK-MEL-2 melanoma = tested on: SK-MEL-2 melanoma
SK-MEL-28 melanoma = tested on: SK-MEL-28 melanoma
SK-MEL-5 melanoma = tested on: SK-MEL-5 melanoma
SK-OV-3 ovarian = tested on: SK-OV-3 ovarian
SN12C renal = tested on: SN12C renal
SNB-19 CNS = tested on: SNB-19 CNS
SNB-75 CNS = tested on: SNB-75 CNS
SR leukemia = tested on: SR leukemia
SW-620 colon = tested on: SW-620 colon
T-47D breast = tested on: T-47D breast
TK-10 renal = tested on: TK-10 renal
U251 CNS = tested on: U251 CNS
UACC-257 melanoma = tested on: UACC-257 melanoma
UACC-62 melanoma = tested on: UACC-62 melanoma
UO-31 renal = tested on: UO-31 renal
MDA-N = tested on: MDA-N

In the case of `CC(C)[C@]12O[C@H]1[C@@H]1O[C@]13[C@]1(O[C@H]1C[C@H]1C4=C(CC[C@@]13C)C(=O)OC4)[C@@H]2OC(=O)OC(C)(C)C`, the GI50 (786-0 renal) was 30.8 nM, the TGI (786-0 renal) was > 100000 nM and the GI50 (A498 renal) was 14.5 nM. The TGI (A498 renal) was 45.4 nM, the GI50 (A549 NSCLC) was 20.6 nM and the TGI (A549 NSCLC) was > 100000 nM. The GI50 (ACHN renal) was 10.7 nM, the TGI (ACHN renal) was > 100000 nM and the GI50 (BT-549 breast) was 17.2 nM. The TGI (BT-549 breast) was 61.6 nM, the GI50 (CAKI-1 renal) was 22.6 nM and the TGI (CAKI-1 renal) was > 100000 nM. For the same molecule, the GI50 (CCRF-CEM leukemia) was 37.7 nM, the TGI (CCRF-CEM leukemia) was > 100000 nM and the GI50 (COLO 205 colon) was 14 nM. The TGI (COLO 205 colon) was 31.9 nM, the GI50 (DU-145 prostate) was 20.4 nM and the TGI (DU-145 prostate) was > 100000 nM. For the same molecule, the GI50 (EKVX NSCLC) was 57.3 nM, the TGI (EKVX NSCLC) was > 100000 nM and the GI50 (HCC-2998 colon) was 16.6 nM. The TGI (HCC-2998 colon) was 64 nM, the GI50 (HCT-116 colon) was < 10.7 nM and the TGI (HCT-116 colon) was > 100000 nM. The GI50 (HCT-15 colon) was 25.3 nM, the TGI (HCT-15 colon) was > 100000 nM and the GI50 (HL-60(TB) leukemia) was < 10 nM. The TGI (HL-60(TB) leukemia) was 805 nM, the GI50 (HOP-62 NSCLC) was 14.6 nM and the TGI (HOP-62 NSCLC) was > 100000 nM. For the same molecule, the GI50 (HOP-92 NSCLC) was 44.8 nM, the GI50 (HS 578T breast) was 19 nM and the TGI (HS 578T breast) was 71.3 nM. The GI50 (HT29 colon) was < 12.1 nM, the GI50 (IGROV1 ovarian) was 16.4 nM and the GI50 (K-562 leukemia) was 19.9 nM. The TGI (K-562 leukemia) was > 100000 nM, the GI50 (KM12 colon) was 116 nM and the TGI (KM12 colon) was 3410 nM. For the same molecule, the GI50 (LOX IMVI melanoma) was < 10 nM, the TGI (LOX IMVI melanoma) was > 100000 nM and the GI50 (M14 melanoma) was 15.7 nM. The TGI (M14 melanoma) was 33.6 nM, the GI50 (MALME-3M melanoma) was 16.6 nM and the TGI (MALME-3M melanoma) was 55.5 nM. The GI50 (MCF7 breast) was < 14.4 nM, the TGI (MCF7 breast) was > 100000 nM and the GI50 (MDA-MB-231 breast) was 54.3 nM. The TGI (MDA-MB-231 breast) was > 100000 nM, the GI50 (MDA-MB-435) was 12.2 nM and the TGI (MDA-MB-435) was 47.8 nM. For the same molecule, the GI50 (MOLT-4 leukemia) was 15.6 nM, the GI50 (NCI-H226 lung) was < 14.3 nM and the TGI (NCI-H226 lung) was 173 nM. The GI50 (NCI-H23 lung) was < 10 nM, the TGI (NCI-H23 lung) was 56.9 nM and the GI50 (NCI-H460 lung) was < 10 nM. The TGI (NCI-H460 lung) was > 33600 nM, the GI50 (NCI-H522 lung) was 13.7 nM and the TGI (NCI-H522 lung) was 63.5 nM. It also gave a GI50 (NCI/ADR-RES ovarian) of 28.6 nM, a TGI (NCI/ADR-RES ovarian) of 10500 nM and a GI50 (OVCAR-3 ovarian) of 17.1 nM. The TGI (OVCAR-3 ovarian) was 883 nM, the GI50 (OVCAR-4 ovarian) was 27.3 nM and the TGI (OVCAR-4 ovarian) was > 100000 nM. For the same molecule, the GI50 (OVCAR-5 ovarian) was 41.9 nM, the TGI (OVCAR-5 ovarian) was > 100000 nM and the GI50 (OVCAR-8 ovarian) was 28.1 nM. For the same molecule, the TGI (OVCAR-8 ovarian) was > 100000 nM, the GI50 (PC-3 prostate) was 23.8 nM and the TGI (PC-3 prostate) was > 41300 nM. For the same molecule, the GI50 (RPMI-8226 leukemia) was 19.5 nM, the TGI (RPMI-8226 leukemia) was > 42500 nM and the GI50 (RXF 393 renal) was < 11.8 nM. For the same molecule, the TGI (RXF 393 renal) was 28.6 nM, the GI50 (SF-268 CNS) was 25.1 nM and the TGI (SF-268 CNS) was 260 nM. For the same molecule, the GI50 (SF-295 CNS) was 33.6 nM, the TGI (SF-295 CNS) was > 100000 nM and the GI50 (SF-539 CNS) was 21.7 nM. For the same molecule, the TGI (SF-539 CNS) was 294 nM, the GI50 (SK-MEL-2 melanoma) was 18.5 nM and the TGI (SK-MEL-2 melanoma) was 60.3 nM. The GI50 (SK-MEL-28 melanoma) was 17.6 nM, the GI50 (SK-MEL-5 melanoma) was 11.4 nM and the TGI (SK-MEL-5 melanoma) was 24.7 nM. For the same molecule, the GI50 (SK-OV-3 ovarian) was 40.2 nM, the TGI (SK-OV-3 ovarian) was > 100000 nM and the GI50 (SN12C renal) was 26.1 nM. The TGI (SN12C renal) was > 100000 nM, the GI50 (SNB-19 CNS) was 128 nM and the TGI (SNB-19 CNS) was > 100000 nM. For the same molecule, the GI50 (SNB-75 CNS) was 19.3 nM, the TGI (SNB-75 CNS) was 62 nM and the GI50 (SR leukemia) was 15.9 nM. For the same molecule, the GI50 (SW-620 colon) was < 10 nM, the TGI (SW-620 colon) was > 100000 nM and the GI50 (T-47D breast) was 27 nM. The TGI (T-47D breast) was > 100000 nM, the GI50 (TK-10 renal) was 32.9 nM and the TGI (TK-10 renal) was > 100000 nM. For the same molecule, the GI50 (U251 CNS) was 25.3 nM, the TGI (U251 CNS) was > 100000 nM and the GI50 (UACC-257 melanoma) was 17.6 nM. For the same molecule, the TGI (UACC-257 melanoma) was 54.4 nM, the GI50 (UACC-62 melanoma) was 17.8 nM and the TGI (UACC-62 melanoma) was 57.1 nM. For the same molecule, the GI50 (UO-31 renal) was 16.4 nM and the TGI (UO-31 renal) was > 100000 nM.
In the case of `CC(=O)c1cc2sc3ccccc3c2[nH]1`, the TGI (786-0 renal) was > 100000 nM, the TGI (A498 renal) was > 100000 nM and the TGI (A549 NSCLC) was > 100000 nM. The TGI (ACHN renal) was > 100000 nM, the TGI (CAKI-1 renal) was > 100000 nM and the TGI (COLO 205 colon) was > 100000 nM. The TGI (DU-145 prostate) was > 100000 nM, the TGI (HCC-2998 colon) was > 100000 nM and the TGI (HCT-116 colon) was > 100000 nM. The TGI (HCT-15 colon) was > 100000 nM, the TGI (HOP-62 NSCLC) was > 100000 nM and the TGI (HOP-92 NSCLC) was > 100000 nM. For the same molecule, the TGI (HT29 colon) was > 100000 nM, the TGI (K-562 leukemia) was > 100000 nM and the TGI (KM12 colon) was > 100000 nM. The TGI (M14 melanoma) was > 100000 nM, the TGI (MALME-3M melanoma) was > 100000 nM and the TGI (MCF7 breast) was > 100000 nM. For the same molecule, the TGI (MDA-MB-231 breast) was > 100000 nM, the TGI (MDA-MB-435) was > 100000 nM and the TGI (MDA-N) was > 100000 nM. For the same molecule, the TGI (MOLT-4 leukemia) was > 100000 nM, the TGI (NCI-H23 lung) was > 100000 nM and the TGI (NCI-H460 lung) was > 100000 nM. For the same molecule, the TGI (NCI-H522 lung) was > 100000 nM, the TGI (NCI/ADR-RES ovarian) was > 100000 nM and the TGI (OVCAR-3 ovarian) was > 100000 nM. For the same molecule, the TGI (OVCAR-4 ovarian) was > 100000 nM, the TGI (OVCAR-5 ovarian) was > 100000 nM and the TGI (OVCAR-8 ovarian) was > 100000 nM. The TGI (PC-3 prostate) was > 100000 nM, the TGI (RPMI-8226 leukemia) was > 100000 nM and the TGI (RXF 393 renal) was > 100000 nM. For the same molecule, the TGI (SF-268 CNS) was > 100000 nM, the TGI (SF-295 CNS) was > 100000 nM and the TGI (SF-539 CNS) was > 100000 nM. For the same molecule, the TGI (SK-MEL-2 melanoma) was > 100000 nM, the TGI (SK-MEL-28 melanoma) was > 100000 nM and the TGI (SK-MEL-5 melanoma) was > 100000 nM. The TGI (SK-OV-3 ovarian) was > 100000 nM, the TGI (SN12C renal) was > 100000 nM and the TGI (SNB-19 CNS) was > 100000 nM. For the same molecule, the TGI (SW-620 colon) was > 100000 nM, the TGI (T-47D breast) was > 100000 nM and the TGI (TK-10 renal) was > 100000 nM. For the same molecule, the TGI (U251 CNS) was > 100000 nM, the TGI (UACC-62 melanoma) was > 100000 nM and the TGI (UO-31 renal) was > 100000 nM.
